Measurements published in US8298782B2, “Reversible MHC multimer staining for functional purification of antigen-specific T cells” (priority 2000, dated 2012).

How the values were obtained:
[1] = system: LLO91-99-specific T cells; experiment: 51Cr-release cytotoxicity assay of multimer-treated CTLs; assay type: cell-based
Method: (§1) FIG. 3: Interference of MHC multimer staining with T cell function in vitro. (a) LLO91-99-specific T cells were stained for 2 hours with binding (LLO91-99/H2-K^d) or non-binding (p60217-225/H2-K^d) streptavidin-PE tetramer (“tet”) reagents at 4° C. or 37° C. MHC tetramer staining (upper), TCR expression (middle, filled black graph hidden behind TCR^high populations), and annexin V binding (lower) are shown in histogram format. (b) Immunofluorescence staining of LLO91-99-specific T cells one hour after incubation with LLO91-99/H2-K^d streptavidin-Alexa546 tetramers (red) at 4° C. or 37° C. (c) LLO91-99-specific T cells stained for 30 min with binding or non-binding tetramer reagents at 4° C., were then washed to remove unbound reagent and transferred to a chromium release assay (effector to target ratio approx. 5:1). LLO91-99 peptide concentration and percent specific lysis are shown on the x- and y-axes, respectively. The bars indicate lysis of MHC mismatched target cells (10^−8 M LLO91-99 peptide and no peptide conditions only) by effector cells treated with non-binding MHC tetramer reagents (filled bars) or binding reagents (open bars). (d) LLO91-99-specific T cells were treated as in (c), transferred into a proliferation assay in the presence of syngeneic irradiated splenocytes, and stimulated in the presence of peptide or various mitogens (x-axis).
FIG. 7: Reversible MHC multimer staining and T cell function. LLO91-99-specific T cells were stained for 30 min with binding LLO91-99/H2-K^d Strep-tag® II peptide/β2m-Strep-tag® II peptide-HSV-tag:Strep-Tactin® polypeptide (IBA GmbH) or non-binding (p60217-225/H2-K^d) multimer reagents and then extensively washed over 4 h in the presence or absence or d-biotin (1 mM, all done at 4° C.) prior to assays or adoptive transfer. (a) Staining for recombinant MHC-molecules (detected by epitope-tag staining, x-axis) on differently treated T cells. […] Numbers of viable bacteria (y-axis) were determined 48 h following Lysteria infection. […]

[2] = system: Listeria monocytogenes; experiment: adoptive transfer of multimer-treated T cells, protection against Listeria infection; assay type: in vivo, BALB/c mice
From the text: Six hours later, mice were infected with 2×10^4 Listeria monocytogenes. […] Control mice received NaCl only.
(a) Staining for recombinant MHC-molecules (detected by epitope-tag staining, x-axis) on differently treated T cells. (b) Cytotoxicity (% specific lysis, y-axis) of differently treated T cells in response to LLO91-99 peptide-coated target cells (peptide titration, x-axis) with an effector to target cell ratio of approx. 5:1, compare with FIG. 1c. (c) Proliferation (y-axis) of differently treated T cells stimulated with epitope or various mitogens (indicated on the x-axis) in the presence of syngeneic irradiated splenocytes. Compare with FIG. 1d. (d) Protection against Lysteria monocytogenes infection following adoptive transfer of 4.1×10^6 LLO91-99-specific T cells treated with binding (LLO91-99) or non-binding (p60217-225) MHC multimer reagents (indicated to the left). […] Numbers of viable bacteria (y-axis) were determined 48 h following Lysteria infection. Data are representative of three independent experiments, each with 2 mice per group.
LLO91-99 specific T cells were stained with H2-K^d Strep-tag® II peptide multimer reagents (IBA GmbH) at 4° C. […] Adoptive cell transfer was performed by injection of 1×10^7 cells—per mouse per group—into the tail vein of naive BALB/c mice.

[3] = system: LLO91-99-specific T cells; experiment: MHC tetramer staining, TCR expression, annexin V binding and immunofluorescence of T cells; assay type: cell-based
Method: as §1
LLO91-99 specific T cell lines were expanded in vitro as described before (18). MHC-multimer staining was performed by incubation of approximately 2 μg H2-K^d Strep-tag® II peptide multimer reagent (IBA GmbH) per 1×10^6 cells at 4° C. for 30 min. For epitope-tag staining cells were washed, fixed briefly in 1% paraformaldehyde, and subsequently stained for anti-HSV tag using an unconjugated primary mouse or rat mAb (e.g. TB067, Novagen) and a secondary anti-mouse or anti-rat-PE antibody (e.g. A85-1, PharMingen). Flow cytometry was performed using a FACSCalibur (Becton Dickinson) and FlowJo software. […] Conventional ^51Cr-release and ^3H-thymidine incorporation assays were performed as described before (18).
Phenotypic changes of cell populations have not been reported so far following epitope-specific T cell staining at low temperatures (4° C.). Under these conditions, TCR-MHC mediated signalling events become not activated. MHC multimer staining at higher temperatures (e.g. at room temperature (RT), or at 37° C.) has been performed to improve the intensity and/or stabilty of the fluorescent signal through epitope-specific internalization of the multimer. In order to analyze the impact of differential treatment of T cells on their phenotype, we compared LLO91-99-specific T cell lines following staining with LLO91-99/H2-K^d tetramers at 4° C. or 37° C. As a negative control, MHC tetramers containing different Listeria epitope ([…]) were used; these reagents cannot bind to TCRs of LLO91-99-specific T cells, thus controlling for potential peptide-independent effects.

[4] = system: LLO91-99-specific T cells; experiment: 3H-thymidine incorporation proliferation assay of multimer-treated T cells; assay type: cell-based; conditions: reagent remains on the cell surface
Method: FIG. 3: Interference of MHC multimer staining with T cell function in vitro. (a) LLO91-99-specific T cells were stained for 2 hours with binding (LLO91-99/H2-K^d) or non-binding (p60217-225/H2-K^d) streptavidin-PE tetramer (“tet”) reagents at 4° C. or 37° C. MHC tetramer staining (upper), TCR expression (middle, filled black graph hidden behind TCR^high populations), and annexin V binding (lower) are shown in histogram format. (b) Immunofluorescence staining of LLO91-99-specific T cells one hour after incubation with LLO91-99/H2-K^d streptavidin-Alexa546 tetramers (red) at 4° C. or 37° C. (c) LLO91-99-specific T cells stained for 30 min with binding or non-binding tetramer reagents at 4° C., were then washed to remove unbound reagent and transferred to a chromium release assay (effector to target ratio approx. 5:1). LLO91-99 peptide concentration and percent specific lysis are shown on the x- and y-axes, respectively. […]
FIG. 7: Reversible MHC multimer staining and T cell function. […] (a) Staining for recombinant MHC-molecules (detected by epitope-tag staining, x-axis) on differently treated T cells. […] Numbers of viable bacteria (y-axis) were determined 48 h following Lysteria infection. […]

[5] = target: T1, Strep-Tactin® polypeptide (mutated streptavidin) (Streptomyces avidinii, UniProt P22629, E68V/S69T/V71R); conditions: read-out: Kd of Strep-tag II peptide with Strep-Tactin; cited from earlier work
T1 construct: literature IBA GmbH
T1 sequence (P22629 38-163 E68V/S69T/V71R): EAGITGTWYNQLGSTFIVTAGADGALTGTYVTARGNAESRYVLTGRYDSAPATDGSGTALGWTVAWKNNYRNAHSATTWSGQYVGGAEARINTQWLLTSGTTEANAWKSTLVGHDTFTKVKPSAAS

Substance | lysis in the absence of peptide (spontaneous/bystander lysis) ([1]; reagent not dissociated) | maximum % specific lysis ([1]; stained CTLs washed, then 37° C., constant effector to target ratio) | peptide sensitivity of cytotoxicity ([1]; various concentrations of LLO91-99 peptide) | protection against Listeria infection following adoptive transfer ([2]; 4.1×10^6 cells, reagent not dissociated) | LLO91-99-specific T cells recovered from recipient mice after transfer ([2]; compared to control cells) | protection against Listeria infection (viable bacteria in spleen 48 h) ([2]; transfer of 1×10^6 treated CTLs) | protection against Listeria infection (viable bacteria in spleen 48 h) ([2]; transfer of 1×10^7 treated CTLs, listed as LLO91-99/H2-K^d tetramer reagents) | protection against Listeria infection (viable bacteria in spleen 48 h) ([2]; transfer of 1×10^7 treated CTLs, listed as binding MHC tetramers) | MHC tetramer staining ([3]; 2 h incubation at 4° C.) | MHC tetramer staining ([3]; 2 h incubation at 37° C.) | annexin V binding (early marker of apoptosis) ([3]; after staining at 37° C.) | surface TCR expression ([3]; after staining at 37° C.) | immunofluorescence microscopy staining pattern ([3]; incubation at 4° C.) | immunofluorescence microscopy staining pattern ([3]; incubation at 37° C.) | proliferation in response to antigen or mitogenic stimulation [4] | Kd [5] [nM]
LLO91-99/H2-K^d tetramers: conventional tetramers of H2-K^d/LLO91-99 complexes with PE- or Alexa546-conjugated streptavidin | increased lysis in the absence of LLO91-99 peptide addition | reduction in maximum % specific lysis | decreased peptide sensitivity | significantly reduced protection | much lower numbers | indistinguishable from untreated mice | dramatic loss of protective capacity | still confer some significant Listeria-specific protection | high intensity staining | reduced and more diffuse staining pattern | increased binding of annexin V | substantial downregulation of surface TCR | typical surface-staining pattern | most multimers are internalized | poorly proliferate | 
WSHPQFEK [Strep-tag® II peptide] |  |  |  |  |  |  |  |  |  |  |  |  |  |  |  | ~1000
